Test results as given in ChEMBL document CHEMBL1201862, “PubChem BioAssay data set” (2004).
The source made the active and inactive calls.

Legend:
[1] = Luminescence Cell-Based Dose Response HTS to Identify Activators of Luciferase Translation or Activity in H4 […] Cells. [Related pubchem assays: 1829 (Project Summary), 1814 (Primary HTS)]; type: functional
[2] = Luminescence-based cell-based high throughput dose response assay to identify activators of the DAF-12 from the parasite S. stercoralis (ssDAF-12).; type: functional
[3] = molecular target: T1, Oxysterols receptor LXR-beta (Homo sapiens, UniProt P55055); experiment: LXR agonists, Gal4 luciferase reporter, dose response, counter-screen for ssDAF-12 agonist project, cell-based, luminescence, HEK293, S. stercoralis campaign (AID 720737); type: functional; details: read-out: IC50 (the source's name)
T1 sequence (P55055 whole entry): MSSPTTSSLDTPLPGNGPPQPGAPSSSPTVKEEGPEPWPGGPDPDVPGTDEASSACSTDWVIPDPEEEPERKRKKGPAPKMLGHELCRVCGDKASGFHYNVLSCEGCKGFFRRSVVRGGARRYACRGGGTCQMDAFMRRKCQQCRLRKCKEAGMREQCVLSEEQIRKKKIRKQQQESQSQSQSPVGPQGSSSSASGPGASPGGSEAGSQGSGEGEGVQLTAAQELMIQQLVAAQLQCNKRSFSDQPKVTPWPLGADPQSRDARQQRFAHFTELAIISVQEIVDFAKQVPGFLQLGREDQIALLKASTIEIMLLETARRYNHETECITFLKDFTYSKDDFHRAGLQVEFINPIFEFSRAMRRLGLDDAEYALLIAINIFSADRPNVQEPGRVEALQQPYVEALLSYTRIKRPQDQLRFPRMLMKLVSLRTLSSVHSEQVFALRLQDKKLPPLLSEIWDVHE

H4 = experiment: Luminescence Cell-Based Dose Response HTS to Identify Activators of 5'UTR Stem-Loop Driven Prion Protein mRNA Translation in H4 Neuroglioblastoma Cells. [Related pubchem assays: 1829 (Project Summary), 1814 (Primary HTS)]; type: functional; details: Homo sapiens
[4] = Luminescence Cell-Based Dose Response HTS to Identify Inhibitors of 5'UTR Stem-Loop Driven Prion Protein mRNA Translation in H4 Neuroglioblastoma Cells. [Related pubchem assays: 1827 (Project Summary), 1813 (Primary HTS)]; type: functional
[5] = inhibitors of SNCA 5'UTR-driven reporter translation, confirmation, H4 neuroglioma cells, luminescence (AID 1988); type: functional, cell-based
HT-1080 = experiment: cytotoxicity in HT1080 fibrosarcoma cells, cell-based, fluorescence readout (AID 620); type: functional; details: Homo sapiens
[6] = molecular target: Luciferin 4-monooxygenase (Photinus pyralis, UniProt P08659); experiment: Counter Screen for Luciferase-based Assay Positives. [Related pubchem assays: 620, 618, 411 ]
[7] = molecular target: T1, Oxysterols receptor LXR-beta; type: functional, cell-based
BJ [8] = experiment: cytotoxicity toward BJ-TERT fibroblasts, dose response, cell-based, RAS-independent, luminescence (AID 1933); type: functional; details: Homo sapiens
[9] = cytotoxicity toward DRD oncogenic fibroblasts, dose response, cell-based, non-viral oncogenic, luminescence (AID 1934); type: functional; details: Homo sapiens
BJ [10] = experiment: cells; type: functional, cell-based; details: Homo sapiens
BJ [11] = experiment: cytotoxicity toward BJ-TERT-LT-ST fibroblasts, dose response, cell-based, RAS-independent, luminescence (AID 1935); type: functional; details: Homo sapiens;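 note: BJ fibroblasts immortalized with TERT plus LT and ST oncogenes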
cells [12] = experiment: cells
INS1 = experiment: beta cell apoptosis inhibitors, cytokine rescue, dose response, luminescence, retest (AID 449756); type: functional, cell-based; details: Rattus norvegicus;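 note: cell death triggered by IL-1 beta plus TNF-alpha plus IFN-gamma mixture; protective hits raise ATP signal compared with cytokine alone wells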
[13] = molecular target: T1, Oxysterols receptor LXR-beta; type: functional, cell-based; remark: listed apart in the source
[14] = inhibitors of intracellular T. cruzi replication, confirmation, NIH3T3 host cells, beta-gal luminescence (AID 2044); type: functional, cell-based;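 note: intracellular parasites grown in NIH/3T3 mouse fibroblasts as host cells; luminescent beta-galactosidase reporter signal from transgenic T. cruzi replicating inside host cells; inhibitors lower the luminescence signal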
[15] = cytotoxicity toward NIH3T3 fibroblasts, dose response, counter-screen, cell-based, ATP luminescence, mouse fibroblasts (AID 2010); type: functional;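 note: cells exposed to compound for about 90 hours before reading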
[16] = THP-1 cell cytotoxicity, dose response, cytotoxicity control for Vif-APOBEC3G degradation inhibitor project, THP-1 cells (AID 1117359); type: functional; details: Human immunodeficiency virus 1, THP-1
Major prion protein = Major prion protein (Homo sapiens, UniProt P04156); type: functional, cell-based
cells [17] = experiment: cells; remark: listed apart in the source
[18] = IGROV1 ovarian cancer cell cytotoxicity, dose response, PAX8 inhibitor project, plate reader, dry powder samples (AID 743043); type: functional, cell-based; details: IGROV-1
Paired box protein Pax-8 = Paired box protein Pax-8 (Homo sapiens, UniProt Q06710); experiment: inhibitors of PAX8-driven TPO luciferase reporter, dose response, RMG-I cells, cherry-pick (AID 687027); type: functional, cell-based;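 note: luciferase reporter driven by Pax8 target thyroperoxidase promoter measured by SteadyGlo luminescence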
[19] = cytotoxicity in OVCAR8 ovarian cancer cells, dose response, PAX8 project, cell-based, plate reader, dry powder samples (AID 743197); type: functional; details: OVCAR-8
[20] = NIH:OVCAR-3 ovarian cancer cell cytotoxicity, dose response, PAX8 inhibitor project, plate reader, dry powder samples (AID 743044); type: functional, cell-based

For `Cn1ccnc1SCC(=O)c1c[nH]c2ccccc12`, the EC50 [1] was 0.343 µM (active), the IC50 [2] was > 67.5 µM (inactive) and the EC50 [3] was > 67.5 µM (inactive). The EC50 (H4) was < 0.195 µM (active).
With `C=CCn1c(C)cc(C(=O)CSc2nc3ccccc3[nH]2)c1C` the EC50 [4] was 11.1 µM (active), the EC50 [5] was 9.31 µM (active) and the EC50 (HT-1080) was > 50 µM (not active). The EC50 [6] was < 0.2 µM (active).
In the case of `Cc1ccc(C(=N)NOC(=O)c2cccs2)cc1`, the EC50 [7] is reported as > 67.6 µM (inactive).
In the case of `O=C(c1c(Cl)nc2sccn12)N1CCN(c2cccc(Cl)c2)CC1`, the EC50 (BJ [8]) is reported as 3.07 µM (active), the EC50 [9] is reported as 1.56 µM (active) and the EC50 (BJ [10]) is reported as 75.7 µM (inconclusive). The EC50 (BJ [11]) was 1.36 µM (inconclusive), the EC50 (HT-1080) was 11.3 µM (active) and the EC50 [6] was 0.39 µM (active).
For `Cc1cc(N2CCOCC2)n2ncc(-c3ccccc3)c2n1`, the EC50 (cells [12]) was > 67.5 µM (inactive), the AC50 (INS1) was 7.88 µM (active) and the EC50 [13] was > 67.5 µM (inactive). The EC50 (HT-1080) was > 50 µM (not active) and the EC50 [6] was 0.2 µM (active).
With `CCCCN(CCCC)S(=O)(=O)c1ccc(NC(=O)c2cccs2)cc1` the EC50 [14] was 1.83 µM (active), the EC50 [15] was > 60 µM (not active) and the CC50 [16] was 27.9 µM (active).
For `CCC1(CC)Cc2ccccc2-c2nc(S)nc(O)c21`, the IC50 (Major prion protein) was 3.08 µM (active) and the IC50 (cells [17]) was > 138 µM (inactive).
For `C[C@@H]1CN([C@H](C)CO)C(=O)c2cc(NS(=O)(=O)c3ccccc3)ccc2O[C@@H](C)CCCCO[C@@H]1CN(C)Cc1ccc(Cl)c(Cl)c1`, the AC50 [18] was 27.8 µM (active), the AC50 (Paired box protein Pax-8) was 4.44 µM (active) and the AC50 [19] was 46.5 µM (active).
For `COc1ccc(S(=O)(=O)Nc2ccc3c(c2)C(=O)N([C@@H](C)CO)C[C@H](C)[C@@H](CN(C)Cc2ccc(C(F)(F)F)cc2)OCCCC[C@H](C)O3)cc1`, the AC50 [18] was 37.9 µM (active), the AC50 (Paired box protein Pax-8) was 6.83 µM (active) and the AC50 [20] was 46.7 µM (active). The AC50 [19] was > 70 µM (inactive).
With `COc1ccccc1S(=O)(=O)N1CC[C@H]2[C@@H](CO)N(C)c3ccc(-c4ccc(C#N)cc4)cc3[C@H]21` the AC50 (Paired box protein Pax-8) was 38.1 µM (active) and the AC50 [20] was 37.8 µM (active).
For `CCOC(=O)N1CCC(/N=c2/c(-c3ccc(C)cc3)c(O)c2=O)CC1`, the IC50 [2] was > 67.5 µM (inactive) and the EC50 [3] was > 67.5 µM (inactive).
For `O=C(O)c1cc(-c2cccs2)nc2ccc(Br)cc12`, the IC50 (Major prion protein) was 1.41 µM (active) and the IC50 (cells [17]) was > 138 µM (inactive).
